Assays:
[1] = tested on: cysteamine induced duodenal ulcers; test: Healing of cysteamine-induced perforating duodenal ulcers, therapy in drinking water for 50 days (Example 1); format: in vivo; conditions: rats, 50 days therapy from day 7 after cysteamine, urogastrone 6 μg./rat/day, cimetidine 100 mg./rat/day; for Healed (number of healed ulcers) / Unhealed (number of unhealed ulcers): n 15
Description: Rats with perforating duodenal ulcers confirmed by laparotomy were selected from a large number and given two doses of cysteamine as described in the following protocol. These animals were randomly assigned to treatment groups of 15 rats each. The protocol utilises 2 doses of cysteamine (300 mg./kg. and 150 mg./kg., 6 hours apart). This procedure produces deep perforating duodenal ulcers in a majority of the rats injected. The "chronic" ulcers heal extremely slowly. Previous studies have shown that after 50 days only 20% have healed as judged by reepithelialization of the surface. Even after 200 days, 36% remain unhealed. In order to provide for a reliable experimental protocol, rats given 2 doses of cysteamine are subjected to an intra-abdominal inspection by laparotomy 5 days after induction. Only those rats in which perforation of the ulcer to the duodenal external serosal surface has occurred are included in the experimental groups. Rats with non-perforating ulcers are discarded. Therapy by drug or placebo then begins on day 7 post-induction.On termination after a standardised period of (21 to 50 days) therapy the duodenum is removed from all rats, fixed and stained with PAS and the number of healed and unhealed ulcers determined by macroscopic examination of the mucosal surface with a stereomicroscope. Healing is defined as restoration of complete mucosal integrity by reepithelialisation of the surface. This is confirmed by subsequent histology. In this example, therapy commenced on day 7 following cysteamine and continued for 50 days.

gastric acid secretion [2] = conditions: administered intravenously to animals; cited from earlier work
gastrointestinal mucosa = conditions: administered concurrently with or prior to the injurious stimuli; cited from earlier work
gastric acid secretion [3] = test: Histamine stimulated acid secretion in beagle dogs with Heidenhain pouches (Example 3); format: in vivo, dog; conditions: Heidenhain pouch dogs; for effect on acid secretion, intravenous administration: intravenously administered
Description: Male beagle dogs (14-22 kg.) were prepared with isolated Heidenhain (vagal denervated) pouches derived from the fundic area of the stomach by the method of Rudick et al, J. Surg. Res. 7: 383, 1967. Animals were allowed 4-6 weeks to recover from surgery and given a 2-3 month training period to standardise laboratory behaviour and secretory responses. The dogs were fasted for 23 hours prior to use, the pouch then flushed with warm water and histamine infused subcutaneously at a rate of 10 μg./min. Pouch secretions were collected every 15 minutes, their volume measured and aliquots titrated to pH 7.0 with 100 mM NaOH.

[4] = tested on: acid secretion in the stomach; conditions: administered by a systemic route; cited from earlier work
[5] = tested on: gastrointestinal epithelial proliferation; test: Crypt cell production rate of gastrointestinal epithelium in rats on total parenteral nutrition (Example 4); format: in vivo, rat; conditions: intragastric infusion of similar or much larger doses than i.v.
Description: These animals have permanent indwelling i.v. catheters connected to infusion pumps via 360° swivel joints which allow normal mobility of the rats within their cages. A complete parenteral food mixture is infused through the catheters at a rate of 60 ml./rat/24 h. The animals are allowed water in the normal way but no food by mouth.
Epithelial cell turnover in these experiments was determined as the crypt cell production rate (CCPR) at each site examined. CCPR was defined as the number of new cells produced per mucosal crypt per hour (for method of determination see Al Nafussi and Wright, Virch. Arch. Cell Pathol. 40: 63, 1982).
Infusion was continued for 10 days.

[6] = tested on: cysteamine induced duodenal ulcers; test: Healing of cysteamine-induced duodenal ulcers, therapy by oral gavage for 21 days, assessed blind by 2 observers (Example 2); format: in vivo; conditions: rats, 10 μg./rat/dose by oral gavage three times a day
Description: The protocol utilises 2 doses of cysteamine (300 mg./kg. and 150 mg./kg., 6 hours apart).
In order to provide for a reliable experimental protocol, rats given 2 doses of cysteamine are subjected to an intra-abdominal inspection by laparotomy 5 days after induction. Only those rats in which perforation of the ulcer to the duodenal external serosal surface has occurred are included in the experimental groups. Rats with non-perforating ulcers are discarded. Therapy by drug or placebo then begins on day 7 post-induction.On termination after a standardised period of (21 to 50 days) therapy the duodenum is removed from all rats, fixed and stained with PAS and the number of healed and unhealed ulcers determined by macroscopic examination of the mucosal surface with a stereomicroscope. Healing is defined as restoration of complete mucosal integrity by reepithelialisation of the surface.
In this Example the same protocol was followed as in Example 1 but therapy was continued for only 21 days after commencing on day 7 following ulcer induction.

Molecule | Percentage Rate (healed) [1] [%] | Healed (number of healed ulcers) [1] | Unhealed (number of unhealed ulcers) [1] | activity in inhibiting acid secretion, beta- versus gamma-urogastrone (gastric acid secretion [2]) | protection of the gastrointestinal mucosa against damaging stimuli and ulcer formation (gastrointestinal mucosa) | effect on acid secretion, intravenous administration (gastric acid secretion [3]) | other results
CN/C(=N/CCSCc1nc[nH]c1C)NC#N [Cimetidine, reference compound] | 40 | 6 | 9 |  |  |  | 
Urogastrone: active form of human urogastrone, polypeptide hormone of 53 amino acids; recombinant derived, produced by microbial methods | 43 | 6 | 8 | equal activity | protect the gastrointestinal mucosa | inhibited acid secretion | time to peak inhibition of the acid secretion response to histamine (gastric acid secretion [3]; after intravenous bolus injection): ≤ 30 min; dose required to produce a 50% inhibition of acid secretion (gastric acid secretion [3]; intravenous bolus dose, histamine 10 μg./min s.c., from log-linear dose response regression plots): 0.27 µg/kg; effect on acid secretion, oral administration (gastric acid secretion [3]; single oral solution dose, even at 4 mg. (approximately 200 μg./kg.)): no effect on acid secretion; inhibition of acid secretion in the stomach of humans [4]: inhibit acid secretion; effect on gastrointestinal epithelial proliferation, intragastric infusion [5]: no effect; Percentage healed, observer (1) [6]: 36%; Percentage healed, observer (2) [6]: 23%; Healed, observer (1) ([6]; n 22): 8; Unhealed, observer (1) ([6]; n 22): 14; Unhealed, observer (2) ([6]; n 22): 17
gamma-urogastrone: 52 amino acid form that differs from beta-urogastrone only in lacking the carboxy-terminal arginine residue (NSDSECPLSHDGYCLHDGVCMYIEALDKYACNCVVGYIGERCQYRDLKWWEL; Epidermal growth factor; UniProt P01133 971-1022, looked up, fragment) |  |  |  | equal activity |  |  | 
mEGF: epidermal growth factor from mouse salivary glands, polypeptide of 53 amino acids resembling beta-urogastrone (NSYPGCPSSYDGYCLNGGVCMHIESLDSYTCNCVIGYSGDRCQTRDLRWWELR; Epidermal growth factor; UniProt P01132 977-1029, looked up) [reference compound] |  |  |  |  | protect the gastrointestinal mucosa | inhibited acid secretion | 
